The test system of data set [1] is PC-12. The data set is described as follows: Neuroprotective activity in rat PC-12 cells assessed as increase in NGF-mediated neurite outgrowth at 3 uM incubated for 48 hrs by phase contrast microscopic analysis. It counts as functional.
Data set [2] addresses Histone deacetylase 1 (Homo sapiens, UniProt Q13547). The data set is described as follows: Inhibition of HDAC1 (unknown origin) using fluorogenic peptide RHKKAc-AMC as substrate by fluorescence-based assay.
For data set [3], the target named is T1, Protein deacetylase HDAC6 (Homo sapiens, UniProt Q9UBN7).
T1 sequence (Q9UBN7 whole entry): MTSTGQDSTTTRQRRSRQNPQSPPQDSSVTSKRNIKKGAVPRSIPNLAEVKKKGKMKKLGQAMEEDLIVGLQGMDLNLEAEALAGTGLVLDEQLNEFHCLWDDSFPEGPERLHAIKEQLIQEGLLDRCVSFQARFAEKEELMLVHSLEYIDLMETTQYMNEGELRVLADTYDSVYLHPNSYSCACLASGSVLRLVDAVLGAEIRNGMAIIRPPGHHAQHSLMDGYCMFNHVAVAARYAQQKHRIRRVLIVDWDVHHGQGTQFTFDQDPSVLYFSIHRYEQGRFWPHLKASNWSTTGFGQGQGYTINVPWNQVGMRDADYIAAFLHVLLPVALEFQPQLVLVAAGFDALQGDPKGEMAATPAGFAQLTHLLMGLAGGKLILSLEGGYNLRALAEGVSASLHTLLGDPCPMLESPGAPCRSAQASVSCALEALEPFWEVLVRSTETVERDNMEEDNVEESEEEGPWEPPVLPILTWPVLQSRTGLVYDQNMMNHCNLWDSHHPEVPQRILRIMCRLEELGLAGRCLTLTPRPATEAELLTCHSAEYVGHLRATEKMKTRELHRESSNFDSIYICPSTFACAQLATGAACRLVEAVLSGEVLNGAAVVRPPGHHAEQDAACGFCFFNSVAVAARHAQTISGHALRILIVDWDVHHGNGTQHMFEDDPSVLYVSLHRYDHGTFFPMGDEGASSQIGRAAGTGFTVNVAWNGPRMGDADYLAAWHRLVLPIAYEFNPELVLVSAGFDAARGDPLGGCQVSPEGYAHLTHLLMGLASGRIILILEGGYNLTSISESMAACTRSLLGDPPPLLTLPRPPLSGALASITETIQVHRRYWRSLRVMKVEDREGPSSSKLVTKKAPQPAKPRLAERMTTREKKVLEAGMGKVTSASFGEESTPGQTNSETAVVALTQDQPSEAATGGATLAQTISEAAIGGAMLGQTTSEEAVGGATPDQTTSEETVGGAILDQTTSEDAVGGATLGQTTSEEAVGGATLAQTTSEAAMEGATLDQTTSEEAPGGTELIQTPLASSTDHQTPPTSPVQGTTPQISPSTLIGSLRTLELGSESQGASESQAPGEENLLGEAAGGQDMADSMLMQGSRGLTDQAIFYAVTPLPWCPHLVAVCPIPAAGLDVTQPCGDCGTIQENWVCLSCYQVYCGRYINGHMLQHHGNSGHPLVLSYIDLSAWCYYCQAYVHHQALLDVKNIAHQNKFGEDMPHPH
The data set is described as follows: Inhibition of HDAC6 (unknown origin) using fluorogenic peptide RHKKAc-AMC as substrate by fluorescence-based assay.

The species named for data set [4] is Homo sapiens. The data set is described as follows: Selectivity index, ratio of IC50 for inhibition of HDAC1 (unknown origin) to IC50 for inhibition of HDAC6 (unknown origin).
Data set [5] has as its system PC-12. The data set is described as follows: Neuroprotective activity against H202-induced oxidative damage in rat PC-12 cells assessed as increase in cell viability at 1 to 10 uM. The data set is classed as functional, cell-based. As to conditions: dose 1-10 µM.
The subject of data set [6] is PC-12. The data set is described as follows: Cytotoxicity against rat PC-12 cells assessed as reduction in cell viability at 10 uM. The data set is classed as toxicity, cell-based. To be noted: pc-12, 10 µM.
Data set [7] has as its system PC-12. The data set is described as follows: Neuroprotective activity in rat PC-12 cells assessed as increase in NGF-mediated neurite outgrowth at 1 to 10 uM incubated for 48 hrs by phase contrast microscopic analysis. To be noted: dose 1-10 µM. It counts as functional, cell-based.
For data set [8], the target named is Histone deacetylase 2 (Homo sapiens, UniProt Q92769). The data set is described as follows: Inhibition of HDAC2 (unknown origin) using fluorogenic peptide RHKKAc-AMC as substrate by fluorescence-based assay.
Data set [9] has as its target Histone deacetylase 3 (Homo sapiens, UniProt O15379). The data set is described as follows: Inhibition of HDAC3 (unknown origin) using fluorogenic peptide RHKKAc-AMC as substrate by fluorescence-based assay.
For data set [10], the target named is Histone deacetylase 5 (Homo sapiens, UniProt Q9UQL6). The data set is described as follows: Inhibition of HDAC5 (unknown origin) using trifluoroacetyl lysine as substrate by fluorescence-based assay.
Data set [11] relates to PC-12. The data set is described as follows: Neuroprotective activity in rat PC-12 cells assessed as increase in NGF-mediated neurite outgrowth at 10 uM incubated for 48 hrs by phase contrast microscopic analysis. The data set is classed as functional.
The subject of data set [12] is PC-12. The data set is described as follows: Neuroprotective activity against H202-induced oxidative damage in rat PC-12 cells assessed as increase in cell viability at 10 uM. It counts as functional.

Sequence of Histone deacetylase 1 (Q13547 whole entry): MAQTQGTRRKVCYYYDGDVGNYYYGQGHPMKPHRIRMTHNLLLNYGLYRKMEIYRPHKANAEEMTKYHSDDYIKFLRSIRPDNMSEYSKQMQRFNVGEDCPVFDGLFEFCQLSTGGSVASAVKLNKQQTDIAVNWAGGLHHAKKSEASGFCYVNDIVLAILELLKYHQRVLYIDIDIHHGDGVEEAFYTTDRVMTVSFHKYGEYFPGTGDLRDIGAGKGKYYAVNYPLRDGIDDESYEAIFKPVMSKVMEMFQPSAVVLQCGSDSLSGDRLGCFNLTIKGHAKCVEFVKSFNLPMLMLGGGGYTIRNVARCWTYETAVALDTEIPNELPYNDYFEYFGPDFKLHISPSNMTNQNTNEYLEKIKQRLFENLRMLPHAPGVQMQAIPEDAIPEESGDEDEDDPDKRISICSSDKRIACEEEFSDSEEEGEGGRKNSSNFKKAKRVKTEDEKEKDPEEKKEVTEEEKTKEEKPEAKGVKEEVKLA
Sequence of Histone deacetylase 2 (Q92769 whole entry): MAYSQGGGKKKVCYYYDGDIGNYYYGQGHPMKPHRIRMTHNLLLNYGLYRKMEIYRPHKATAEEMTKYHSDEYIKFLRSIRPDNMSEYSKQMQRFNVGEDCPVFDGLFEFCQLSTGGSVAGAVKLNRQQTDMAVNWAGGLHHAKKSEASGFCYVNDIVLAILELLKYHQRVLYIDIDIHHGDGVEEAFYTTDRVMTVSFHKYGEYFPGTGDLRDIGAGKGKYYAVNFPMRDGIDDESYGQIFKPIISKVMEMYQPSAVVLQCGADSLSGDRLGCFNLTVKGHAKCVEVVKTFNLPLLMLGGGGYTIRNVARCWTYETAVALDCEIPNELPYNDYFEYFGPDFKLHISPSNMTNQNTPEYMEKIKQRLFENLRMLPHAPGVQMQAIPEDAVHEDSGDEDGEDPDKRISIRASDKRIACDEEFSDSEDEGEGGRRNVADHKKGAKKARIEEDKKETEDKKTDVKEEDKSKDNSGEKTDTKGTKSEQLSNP
Sequence of Histone deacetylase 5 (Q9UQL6 whole entry): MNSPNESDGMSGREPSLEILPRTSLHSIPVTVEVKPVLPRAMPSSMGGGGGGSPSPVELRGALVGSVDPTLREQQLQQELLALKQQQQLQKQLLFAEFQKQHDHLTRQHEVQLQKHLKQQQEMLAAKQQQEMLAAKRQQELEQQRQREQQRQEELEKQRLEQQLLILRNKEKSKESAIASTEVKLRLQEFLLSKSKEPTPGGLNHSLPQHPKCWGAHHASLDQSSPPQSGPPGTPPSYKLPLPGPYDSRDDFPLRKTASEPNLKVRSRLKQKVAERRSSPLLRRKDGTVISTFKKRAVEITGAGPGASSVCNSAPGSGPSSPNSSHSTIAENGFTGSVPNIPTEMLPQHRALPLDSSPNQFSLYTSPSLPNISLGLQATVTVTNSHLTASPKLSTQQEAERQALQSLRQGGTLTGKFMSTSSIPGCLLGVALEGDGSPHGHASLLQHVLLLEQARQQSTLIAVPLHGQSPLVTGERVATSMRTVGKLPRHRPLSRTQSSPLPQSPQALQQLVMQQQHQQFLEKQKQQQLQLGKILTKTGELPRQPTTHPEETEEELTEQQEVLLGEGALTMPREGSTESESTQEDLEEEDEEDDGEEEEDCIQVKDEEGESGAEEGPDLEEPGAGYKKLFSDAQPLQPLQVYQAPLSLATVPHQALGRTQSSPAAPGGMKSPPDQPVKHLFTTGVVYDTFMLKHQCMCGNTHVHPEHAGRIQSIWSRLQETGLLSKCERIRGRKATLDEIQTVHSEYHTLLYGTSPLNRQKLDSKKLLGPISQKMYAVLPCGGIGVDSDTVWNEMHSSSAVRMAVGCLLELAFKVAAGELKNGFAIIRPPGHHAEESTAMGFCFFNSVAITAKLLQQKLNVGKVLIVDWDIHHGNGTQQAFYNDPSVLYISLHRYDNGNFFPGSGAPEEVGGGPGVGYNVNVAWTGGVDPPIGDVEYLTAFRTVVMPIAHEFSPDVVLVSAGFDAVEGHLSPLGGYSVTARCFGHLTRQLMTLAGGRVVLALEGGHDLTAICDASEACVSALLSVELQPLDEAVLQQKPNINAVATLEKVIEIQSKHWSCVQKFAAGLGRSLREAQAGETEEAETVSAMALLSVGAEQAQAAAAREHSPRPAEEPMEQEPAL
Sequence of Histone deacetylase 3 (O15379 whole entry): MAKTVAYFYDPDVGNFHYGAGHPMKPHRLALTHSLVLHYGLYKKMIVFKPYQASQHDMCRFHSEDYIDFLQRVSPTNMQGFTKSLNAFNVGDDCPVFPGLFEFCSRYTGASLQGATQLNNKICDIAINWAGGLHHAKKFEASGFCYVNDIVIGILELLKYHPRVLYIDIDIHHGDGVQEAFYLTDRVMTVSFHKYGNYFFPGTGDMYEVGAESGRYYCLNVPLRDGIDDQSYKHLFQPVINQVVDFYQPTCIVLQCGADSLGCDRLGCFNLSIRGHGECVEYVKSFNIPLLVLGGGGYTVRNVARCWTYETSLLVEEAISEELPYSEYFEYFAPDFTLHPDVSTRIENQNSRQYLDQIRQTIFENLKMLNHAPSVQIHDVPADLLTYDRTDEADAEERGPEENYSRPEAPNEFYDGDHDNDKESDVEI

With `O=C1CN(Cc2ccc(C(=O)NO)cc2)C(=O)[C@@H](Cc2c[nH]c3ccccc23)N1`, the Activity in data set [1] is listed as 12.3%.
The same measure, in the same setting: the value for `O=C(NO)c1ccc(CN2CC(=O)N(Cc3ccccc3)C(Cc3ccccc3)C2=O)cc1` (centres undefined) was 12.3%; that for `CN1C(=O)CN(Cc2ccc(C(=O)NO)cc2)C(=O)C1Cc1ccccc1` (centres undefined) was 12.3%.
For `O=C(NO)c1ccc(CN2CCN(C(=O)c3c[nH]c4ccccc34)CC2)cc1`, the IC50 in data set [2] worked out at 1.26 µM; in data set [3] it was 0.0144 µM. Also, in data set [4], the Ratio IC50 amounted to 87. The Activity in data set [1] was 12.3%.
As for `CN1CCc2c(c3ccccc3n2Cc2ccc(C(=O)NO)cc2)C1`, the Activity result in data set [5] is “Dose-Dependent Effect”.
For `O=C(NO)c1ccc(CN2CCN(C(=O)c3c[nH]c4cc(F)ccc34)CC2)cc1`, the IC50 was determined as 1.19 µM in [2] and 0.014 µM in data set [3]. In [4], the Ratio IC50 stood at 85. For the same compound, the Activity in data set [1] is 12.3%.
In the case of `O=C(NO)c1ccc(CN2CCN(C(=O)c3c[nH]c4ccc(Cl)cc34)CC2)cc1`, the IC50 in data set [2] was 1.43 µM; in data set [3], 0.026 µM. In addition, the Ratio IC50 in [4] stood at 55. Besides, the Activity in data set [1] is 12.3%.
In the case of `O=C(NO)c1ccc(CN2CCN(C(=O)c3c[nH]c4cc(OCc5ccccc5)ccc34)CC2)cc1`, the IC50 in [2] was found to be 1.05 µM; in [3], 0.0234 µM. In data set [4], the Ratio IC50 was 45. The Activity in [1] was 37.3%; in [6], “Toxic”; in [7], “Dose-Dependent Effect”.
As for `Cc1cccc2c(C(=O)N3CCN(Cc4ccc(C(=O)NO)cc4)CC3)c[nH]c12`, the IC50 in data set [2] is 1.39 µM; in data set [3], 0.0136 µM; in [8] it was 2.25 µM; in data set [9], 1.85 µM; in data set [10], greater than 50 µM. For the same compound, in data set [4], the Ratio IC50 was 102. Besides, the Activity in data set [1] was 34.7%; in data set [11] it was 12.3%; in [6], 39.1%; in data set [7], “Dose-Dependent Effect”; in data set [5] it was “Dose-Dependent Effect”; in data set [12], 78.5%.
`C=CCN1C(=O)CN(Cc2ccc(C(=O)NO)cc2)C(=O)C1Cc1ccccc1` (centres undefined): the Activity in data set [1] is 12.3%.
As for `O=C(NO)c1ccc(CN2CCN(C(=O)c3c[nH]c4cccc(Cc5ccccc5)c34)CC2)cc1`, the IC50 in [2] was greater than 50 µM; in data set [3], 0.0785 µM. Moreover, the values for the Activity in data set [1] and in [7] were 31.8% and “Dose-Dependent Effect”, respectively.
Take `Cn1cc(C(=O)N2CCN(Cc3ccc(C(=O)NO)cc3)CC2)c2ccccc21`: the IC50 is 2.18 µM in data set [2] and 0.0552 µM in data set [3]. Further, the Ratio IC50 in data set [4] is 39. Further, the Activity in data set [1] is recorded as 27.5%.
In turn, `O=C(NO)c1ccc(CN2CCN(C(=O)c3cc4ccccc4[nH]3)CC2)cc1` yielded an IC50 in data set [3] of 0.0885 µM.

By IC50 is commonly meant the concentration needed to halve the response being measured. Low values mean inhibition by little substance, high ones a need for much substance.
